By IC50 is commonly meant the concentration that gives 50% inhibition.

Here are results for 21 compounds from US20230192661A1, “1, 4, 5, 6-TETRAHYDROPYRIMIDINE-2-AMINE DERIVATIVE” (UBE Corporation, priority 2020, published 2023).

In the experiment the test system is TGF-β activation (phosphorylated SMAD3). As to the kind of experiment: TGF-β activation inhibition test (inhibition of SMAD3 phosphorylation in TFK-1 cells). Format: cell-based. The following applies: 48 h, fibronectin-coated plate, cultured 2 days, read-out: IC50 (rate of inhibition of phosphorylated SMAD3). The procedure: In Test Example 3, the inhibition of TGF-β activation by a compound was detected with the inhibition of SMAD3 phosphorylation as an index. In Test Example 3, the same reagents as in Test Example 1 were used unless otherwise specified.
Human fibronectin was prepared at 14 μg/mL with PBS and then dispensed at 50 μL/well to a 96-well plate. The plate was left standing at room temperature for 1 hour or longer, followed by the removal of the fibronectin solution. The plate was washed with PBS and used as a coated plate.
A test compound dissolved in DMSO was added to RPMI medium 1640 (manufactured by Thermo Fisher Scientific, Inc., 11875) containing 1% FBS and 1% penicillin/streptomycin/amphotericin B to prepare a medium containing the test compound having a concentration of two times the final concentration. This medium was added at 100 μL/well to the coated plate. TFK-1 cells (Cell Resource Center for Biomedical Research, Institute of Development, Aging and Cancer, Tohoku University) cultured in RPMI medium 1640 containing 10% FBS and 1% penicillin/streptomycin/amphotericin B were suspended in RPMI medium 1640 containing 1% FBS and 1% penicillin/streptomycin/amphotericin B to prepare a cell suspension of 1×10^6 cells/mL. The prepared cell suspension was further added at 100 μL/well and cultured for 2 days in a 5% CO2 incubator (37° C.).
Phosphorylated SMAD3 in the cells thus cultured for 2 days was measured using Phospho-SMAD3 (Ser423/425) cellular kit (manufactured by cisbio, 63ADK025), and a DeltaF value was calculated according to the calculation expression of the kit. Inhibition when 10 μM LY364947 (FUJIFILM Wako Pure Chemical Corp., 123-05981) was added instead of the test compound was defined as 100% inhibition, and inhibition when DMSO was added instead was defined as 0% inhibition. The rate of inhibition of phosphorylated SMAD3 by the test compound was calculated according to the following expression.
Rate of inhibition of phosphorylated SMAD3 (%)=[1−{(DeltaF value in the case of adding the test compound)−(DeltaF value in the case of adding 10 μM LY364947)}/{(DeltaF value in the case of adding DMSO)−(DeltaF value in the case of adding 10 μM LY364947)}]×100
An IC50 value was calculated from the rate of inhibition of phosphorylated SMAD3 by the test compound. A: IC50<10 nM, B: 10 nM≤IC50<50 nM, C: 50 nM≤IC50<100 nM, or D: IC50≥100 nM.
Regarding `O=C(O)C[C@H](NC(=O)CNC(=O)c1cc(NC2=NCC(F)CN2)c2cn[nH]c2c1)c1cc(Cl)ccc1F` (stereo partly drawn) [Example 22-(b), (3S)-3-(5-chloro-2-fluorophenyl)-3-(2-(4-((5-fluoro-1,4,5,6-tetrahydropyrimidin-2-yl)amino)-1H-indazole-6-carboxamido)acetamido)propanoic acid], the IC50 is 10 to 50 nM.

Regarding `O=C(O)C[C@H](NC(=O)CNC(=O)c1cc(NC2=NCC(F)CN2)c2cn[nH]c2c1)c1cc(Br)ccc1F` (stereo partly drawn) [Example 23-(b), (3S)-3-(5-bromo-2-fluorophenyl)-3-(2-(4-((5-fluoro-1,4,5,6-tetrahydropyrimidin-2-yl)amino)-1H-indazole-6-carboxamido)acetamido)propanoic acid], the IC50 lay in the range of 10 to 50 nM.

Turning to `O=C(O)C[C@H](NC(=O)CNC(=O)c1cc(NC2=NCC(F)CN2)c2cn[nH]c2c1)c1cc(OC(F)F)cc(C(F)(F)F)c1` (stereo partly drawn) [Example 24-(b), (3S)-3-(3-(difluoromethoxy)-5-(trifluoromethyl)phenyl)-3-(2-(4-((5-fluoro-1,4,5,6-tetrahydropyrimidin-2-yl)amino)-1H-indazole-6-carboxamido)acetamido)propanoic acid], the IC50 was < 10 nM.

`O=C(O)C[C@H](NC(=O)CNC(=O)c1cc(NC2=NCC(F)CN2)c2cn[nH]c2c1)c1cc(Cl)cc(OC(F)F)c1` (stereo partly drawn) [Example 25-(b), (3S)-3-(3-chloro-5-(difluoromethoxy)phenyl)-3-(2-(4-((5-fluoro-1,4,5,6-tetrahydropyrimidin-2-yl)amino)-1H-indazole-6-carboxamido)acetamido)propanoic acid]: the 50% inhibitory concentration (IC50) is < 10 nM.

With `O=C(O)C[C@H](NC(=O)CNC(=O)c1cc(NC2=NCC(F)CN2)c2cn[nH]c2c1)c1cc(Br)cc(OC(F)F)c1` (stereo partly drawn) [Example 26-(b), (3S)-3-(3-bromo-5-(difluoromethoxy)phenyl)-3-(2-(4-((5-fluoro-1,4,5,6-tetrahydropyrimidin-2-yl)amino)-1H-indazole-6-carboxamido)acetamido)propanoic acid], the IC50 is < 10 nM.

Consider `O=C(O)C[C@H](NC(=O)CNC(=O)c1cc(NC2=NCC(F)CN2)c2cn[nH]c2c1)c1ccc(F)c(OC(F)F)c1` (stereo partly drawn) [Example 27-(b), (3S)-3-(3-(difluoromethoxy)-4-fluorophenyl)-3-(2-(4-((5-fluoro-1,4,5,6-tetrahydropyrimidin-2-yl)amino)-1H-indazole-6-carboxamido)acetamido)propanoic acid], for which the IC50 is < 10 nM.

Consider `O=C(O)C[C@H](NC(=O)CNC(=O)c1cc(NC2=NCC(F)CN2)c2cn[nH]c2c1)c1cc(OC(F)F)ccc1F` (stereo partly drawn) [Example 28-(b), (3S)-3-(5-(difluoromethoxy)-2-fluorophenyl)-3-(2-(4-((5-fluoro-1,4,5,6-tetrahydropyrimidin-2-yl)amino)-1H-indazole-6-carboxamido)acetamido)propanoic acid], for which the 50% inhibitory concentration (IC50) was 10 to 50 nM.

For `O=C(O)C[C@H](NC(=O)CNC(=O)c1cc(NC2=NCC(F)CN2)c2cn[nH]c2c1)c1cc(OC(F)F)cc(-n2cccn2)c1` (stereo partly drawn) [Example 29-(b), (3S)-3-(3-(difluoromethoxy)-5-(1H-pyrazol-1-yl)phenyl)-3-(2-(4-((5-fluoro-1,4,5,6-tetrahydropyrimidin-2-yl)amino)-1H-indazole-6-carboxamido)acetamido)propanoic acid], the IC50 was < 10 nM.

As for `O=C(O)C[C@H](NC(=O)CNC(=O)c1cc(NC2=NCC(F)CN2)c2cn[nH]c2c1)c1cc(OC(F)F)cc(OC(F)F)c1` (stereo partly drawn) [Example 30-(b), (3S)-3-(3,5-bis(difluoromethoxy)phenyl)-3-(2-(4-((5-fluoro-1,4,5,6-tetrahydropyrimidin-2-yl)amino)-1H-indazole-6-carboxamido)acetamido)propanoic acid], the concentration for half-maximal inhibition (IC50) is < 10 nM.

As for `O=C(O)C[C@H](NC(=O)CNC(=O)c1cc(NC2=NCC(F)CN2)c2cn[nH]c2c1)c1cc(Cl)cc(OC(F)(F)F)c1` (stereo partly drawn) [Example 31-(b), (3S)-3-(3-chloro-5-(trifluoromethoxy)phenyl)-3-(2-(4-((5-fluoro-1,4,5,6-tetrahydropyrimidin-2-yl)amino)-1H-indazole-6-carboxamido)acetamido)propanoic acid], the IC50 is < 10 nM.

For `O=C(O)C[C@H](NC(=O)CNC(=O)c1cc(NC2=NCC(F)CN2)c2cn[nH]c2c1)c1cc(Br)cc(OC(F)(F)F)c1` (stereo partly drawn) [Example 32-(b), (3S)-3-(3-bromo-5-(trifluoromethoxy)phenyl)-3-(2-(4-((5-fluoro-1,4,5,6-tetrahydropyrimidin-2-yl)amino)-1H-indazole-6-carboxamido)acetamido)propanoic acid], the half-inhibitory concentration (IC50) is < 10 nM.

In the case of `O=C(O)C[C@H](NC(=O)CNC(=O)c1cc(NC2=NCC(F)CN2)c2cn[nH]c2c1)c1cc(OC(F)(F)F)ccc1F` (stereo partly drawn) [Example 33-(b), (3S)-3-(2-(4-((5-fluoro-1,4,5,6-tetrahydropyrimidin-2-yl)amino)-1H-indazole-6-carboxamido)acetamido)-3-(2-fluoro-5-(trifluoromethoxy)phenyl)propanoic acid], the IC50 is < 10 nM.

Take `O=C(O)C[C@H](NC(=O)CNC(=O)c1cc(NC2=NCC(F)CN2)c2cn[nH]c2c1)c1ccc(F)c(OC(F)(F)F)c1` (stereo partly drawn) [Example 34-(b), (3S)-3-(2-(4-((5-fluoro-1,4,5,6-tetrahydropyrimidin-2-yl)amino)-1H-indazole-6-carboxamido)acetamido)-3-(4-fluoro-3-(trifluoromethoxy)phenyl)propanoic acid]: the IC50 was < 10 nM.

In the case of `O=C(O)C[C@H](NC(=O)CNC(=O)c1cc(NC2=NCC(F)CN2)c2cn[nH]c2c1)c1cccc(C(F)(F)F)c1` (stereo partly drawn) [Example 35-(b), (3S)-3-(2-(4-((5-fluoro-1,4,5,6-tetrahydropyrimidin-2-yl)amino)-1H-indazole-6-carboxamido)acetamido)-3-(3-(trifluoromethyl)phenyl)propanoic acid], the IC50 is 10 to 50 nM.

As for `O=C(O)C[C@H](NC(=O)CNC(=O)c1cc(NC2=NCC(F)CN2)c2cn[nH]c2c1)c1cccc(OC(F)(F)F)c1` (stereo partly drawn) [Example 36-(b), (3S)-3-(2-(4-((5-fluoro-1,4,5,6-tetrahydropyrimidin-2-yl)amino)-1H-indazole-6-carboxamido)acetamido)-3-(3-(trifluoromethoxy)phenyl)propanoic acid], the half-maximal inhibitory concentration (IC50) lay in the range of 10 to 50 nM.

Consider `O=C(O)C[C@H](NC(=O)CNC(=O)c1cc(NC2=NCC(F)CN2)c2cn[nH]c2c1)c1cccc(OC(F)F)c1` (stereo partly drawn) [Example 37-(b), (3S)-3-(3-(difluoromethoxy)phenyl)-3-(2-(4-((5-fluoro-1,4,5,6-tetrahydropyrimidin-2-yl)amino)-1H-indazole-6-carboxamido)acetamido)propanoic acid], for which the IC50 is < 10 nM.

Regarding `O=C(O)C[C@H](NC(=O)CNC(=O)c1cc(NC2=NCC(F)CN2)c2cn[nH]c2c1)c1cccc(C(F)F)c1` (stereo partly drawn) [Example 38-(b), (3S)-3-(3-(difluoromethyl)phenyl)-3-(2-(4-((5-fluoro-1,4,5,6-tetrahydropyrimidin-2-yl)amino)-1H-indazole-6-carboxamido)acetamido)propanoic acid], the IC50 lay within 50 to 100 nM.

With `O=C(O)C[C@H](NC(=O)CNC(=O)c1cc(NC2=NCC(F)CN2)c2cn[nH]c2c1)c1cccc(C2CC2)c1` (stereo partly drawn) [Example 39-(b), (3S)-3-(3-cyclopropylphenyl)-3-(2-(4-((5-fluoro-1,4,5,6-tetrahydropyrimidin-2-yl)amino)-1H-indazole-6-carboxamido)acetamido)propanoic acid], the half-inhibitory concentration (IC50) was < 10 nM.

Regarding `O=C(O)C[C@H](NC(=O)CNC(=O)c1cc(NC2=NCC(F)CN2)c2cn[nH]c2c1)c1cccc(OC2CC2)c1` (stereo partly drawn) [Example 40-(b), (3S)-3-(3-cyclopropoxyphenyl)-3-(2-(4-((5-fluoro-1,4,5,6-tetrahydropyrimidin-2-yl)amino)-1H-indazole-6-carboxamido)acetamido)propanoic acid], the IC50 lay in the range of 10 to 50 nM.

Take `O=C(O)C[C@H](NC(=O)CNC(=O)c1cc(NC2=NCC(F)CN2)c2cn[nH]c2c1)c1cccc(Cl)c1` (stereo partly drawn) [Example 41-(b), (3S)-3-(3-chlorophenyl)-3-(2-(4-((5-fluoro-1,4,5,6-tetrahydropyrimidin-2-yl)amino)-1H-indazole-6-carboxamido)acetamido)propanoic acid]: the 50% inhibitory concentration (IC50) is < 10 nM.

On to `O=C(O)C[C@H](NC(=O)CNC(=O)c1cc(NC2=NCC(F)CN2)c2cn[nH]c2c1)c1cccc(Br)c1` (stereo partly drawn) [Example 42-(b), (3S)-3-(3-bromophenyl)-3-(2-(4-((5-fluoro-1,4,5,6-tetrahydropyrimidin-2-yl)amino)-1H-indazole-6-carboxamido)acetamido)propanoic acid], for which the 50% inhibitory concentration (IC50) was in the range of 10 to 50 nM.
